Measurements taken from the NIST ThermoML archive (doi:10.1016/j.fluid.2012.08.020).
“And” between values parts separate entries of the source, which are not always exact repeats. Equal values may be shown once.

Assays:
[1] = molar enthalpy of vaporization or sublimation; details: Liquid, Calvet Calorimetry

Cc1ccccc1-c1ccccc1 [2-methylbiphenyl]
Liquid, Transpiration method
Details | vapor or sublimation pressure [kPa]
301 K | 0.00376
303.5 K | 0.00477
305.9 K | 0.0056
308.4 K | 0.00692
310.9 K | 0.00851
313.4 K | 0.01043
315.9 K | 0.0128
318.4 K | 0.01527
320.8 K | 0.0183
323.3 K | 0.02232
325.8 K | 0.02641
328.3 K | 0.0314
330.7 K | 0.03763
333.2 K | 0.04446
335.7 K | 0.05183
338.1 K | 0.06106
340.6 K | 0.07203
343.1 K | 0.08401
345.6 K | 0.09811
348.1 K | 0.1141

CC(C)(C)c1cccc(-c2ccccc2)c1 [3-(1,1-dimethylethyl)-1,1'-biphenyl]
Liquid
Details | vapor or sublimation pressure [kPa]
323 K, Transpiration method | 0.00191
325.9 K, Transpiration method | 0.00244
328.5 K, Transpiration method | 0.00298
331 K, Transpiration method | 0.00368
333.4 K, Transpiration method | 0.00447
335.3 K, Transpiration method | 0.00514
338.2 K, Transpiration method | 0.00653
340.8 K, Transpiration method | 0.00801
343.3 K, Transpiration method | 0.00917
345.5 K, Transpiration method | 0.0113
348.1 K, Transpiration method | 0.01363
350.7 K, Transpiration method | 0.01622
353.4 K, Transpiration method | 0.01957
356 K, Transpiration method | 0.02333
358.5 K, Transpiration method | 0.0282
361.3 K, Transpiration method | 0.03303
440.79 K, Ebulliometric method (Recirculating still) | 2.117
459.53 K, Ebulliometric method (Recirculating still) | 4.346
473.75 K, Ebulliometric method (Recirculating still) | 7.152
486.07 K, Ebulliometric method (Recirculating still) | 10.66
493.76 K, Ebulliometric method (Recirculating still) | 13.5
501.46 K, Ebulliometric method (Recirculating still) | 16.96
509.1 K, Ebulliometric method (Recirculating still) | 21.07
518.78 K, Ebulliometric method (Recirculating still) | 27.41
527.38 K, Ebulliometric method (Recirculating still) | 34.27
537.26 K, Ebulliometric method (Recirculating still) | 43.86
547.55 K, Ebulliometric method (Recirculating still) | 56.03
558.29 K, Ebulliometric method (Recirculating still) | 71.52
570.25 K, Ebulliometric method (Recirculating still) | 92.61
582 K, Ebulliometric method (Recirculating still) | 118.1

Details | Normal boiling temperature [°C]
Liquid, Ebulliometric method (Recirculating still) | 301.34

CC(C)c1cccc(-c2ccccc2)c1 [3-(1-Methylethyl)-1,1'-biphenyl]
Liquid
Details | vapor or sublimation pressure
302.8 K, Transpiration method | 0.00045 kPa
303.3 K, Transpiration method | 0.00044 kPa
305.9 K, Transpiration method | 0.00061 kPa
307.8 K, Transpiration method | 0.0007 kPa
309.9 K, Transpiration method | 0.0009 kPa
312.9 K, Transpiration method | 0.00122 kPa
313.3 K, Transpiration method | 0.00116 kPa
315.9 K, Transpiration method | 0.00146 kPa
317.9 K, Transpiration method | 0.00187 kPa
319.9 K, Transpiration method | 0.00217 kPa
322.9 K, Transpiration method | 0.00265 kPa and 0.00276 kPa
323.3 K, Transpiration method | 0.0025 kPa
325.8 K, Transpiration method | 0.00378 kPa
327.8 K, Transpiration method | 0.00388 kPa
328 K, Transpiration method | 0.00408 kPa
329.8 K, Transpiration method | 0.00479 kPa
332.3 K, Transpiration method | 0.00644 kPa
332.8 K, Transpiration method | 0.0062 kPa
333.3 K, Transpiration method | 0.0064 kPa and 0.00674 kPa and 0.0065 kPa
333.4 K, Transpiration method | 0.00634 kPa and 0.00708 kPa
335.3 K, Transpiration method | 0.0078 kPa
335.8 K, Transpiration method | 0.00832 kPa
336.3 K, Transpiration method | 0.00811 kPa and 0.0082 kPa
337.3 K, Transpiration method | 0.00945 kPa
337.7 K, Transpiration method | 0.00887 kPa
338 K, Transpiration method | 0.00931 kPa
338.3 K, Transpiration method | 0.00975 kPa
340.3 K, Transpiration method | 0.01113 kPa
342.3 K, Transpiration method | 0.01244 kPa
343.1 K, Transpiration method | 0.01478 kPa and 0.01437 kPa
343.3 K, Transpiration method | 0.01376 kPa and 0.01441 kPa
345.3 K, Transpiration method | 0.01629 kPa and 0.01561 kPa
347.3 K, Transpiration method | 0.01952 kPa and 0.01755 kPa
348.3 K, Transpiration method | 0.01973 kPa and 0.02029 kPa and 0.02064 kPa
349.3 K, Transpiration method | 0.02026 kPa
351.3 K, Transpiration method | 0.02423 kPa
353.2 K, Transpiration method | 0.02884 kPa
353.3 K, Transpiration method | 0.02848 kPa
358.2 K, Transpiration method | 0.04134 kPa
434.53 K, Ebulliometric method (Recirculating still) | 2.17 kPa
452.99 K, Ebulliometric method (Recirculating still) | 4.346 kPa
467.03 K, Ebulliometric method (Recirculating still) | 7.152 kPa
479.19 K, Ebulliometric method (Recirculating still) | 10.66 kPa
486.79 K, Ebulliometric method (Recirculating still) | 13.5 kPa
494.39 K, Ebulliometric method (Recirculating still) | 16.96 kPa
501.93 K, Ebulliometric method (Recirculating still) | 21.07 kPa
511.48 K, Ebulliometric method (Recirculating still) | 27.41 kPa
519.96 K, Ebulliometric method (Recirculating still) | 34.27 kPa
529.73 K, Ebulliometric method (Recirculating still) | 43.86 kPa
539.88 K, Ebulliometric method (Recirculating still) | 56.03 kPa
550.47 K, Ebulliometric method (Recirculating still) | 71.52 kPa
562.29 K, Ebulliometric method (Recirculating still) | 92.61 kPa
573.95 K, Ebulliometric method (Recirculating still) | 118.1 kPa

Details | Normal boiling temperature, Ebulliometric method (Recirculating still) [°C] | molar enthalpy, 323.15 K [kcal/mol] | molar enthalpy, 333.15 K [kcal/mol] | molar enthalpy, 343.15 K [kcal/mol] | molar enthalpy, 353.15 K [kcal/mol] | molar enthalpy, 363.15 K [kcal/mol] | molar enthalpy, 373.15 K [kcal/mol]
Liquid | 293.39 | – | – | – | – | – | –
[1] | – | 17.8 | 17.5 | 17.3 | 17.1 | 16.8 | 16.6

Cc1cccc(-c2ccccc2)c1 [3-methylbiphenyl]
Liquid, Transpiration method
Details | vapor or sublimation pressure [kPa]
318.8 K | 0.00702
320.4 K | 0.00797
323.3 K | 0.01012
325.5 K | 0.01178
328.1 K | 0.01408
330.3 K | 0.01692
333.1 K | 0.02024
336.1 K | 0.02586
338.5 K | 0.03025
340.4 K | 0.03425
343.2 K | 0.04154
346.4 K | 0.05071
348.5 K | 0.05569
350.8 K | 0.06543
353.7 K | 0.07738
356.2 K | 0.09688
358.3 K | 0.1068
360.8 K | 0.1231
363.6 K | 0.1459
365.8 K | 0.1642

CC(C)(C)c1ccc(-c2ccc(C(C)(C)C)cc2)cc1 [4,4'-bis(1,1-dimethylethyl)-1,1'-biphenyl]
Crystal, Transpiration method
Details | vapor or sublimation pressure [kPa]
335.5 K | 7.9e-05
338.5 K | 0.00011
341.5 K | 0.000146
343.5 K | 0.000176
348.2 K | 0.000291
351.5 K | 0.000425
353.9 K | 0.000537
358.5 K | 0.000887
363.7 K | 0.001398
365.5 K | 0.001697
368.6 K | 0.002328
370.5 K | 0.002679
373.5 K | 0.003653
373.7 K | 0.003396
375.7 K | 0.004092
378.2 K | 0.005541
380.4 K | 0.006527
382.5 K | 0.007664
384.7 K | 0.009379

Cc1ccc(-c2ccc(C)cc2)cc1 [4,4'-dimethylbiphenyl]
Crystal, Transpiration method
Details | vapor or sublimation pressure [kPa]
334.2 K | 0.00389
339.3 K | 0.00638
343.2 K | 0.00955
349.2 K | 0.01668
353.7 K | 0.02516
354.6 K | 0.02591
358.8 K | 0.03834
363.7 K | 0.05681
368.7 K | 0.08722
374.5 K | 0.1474
379.5 K | 0.2146

CC(C)(C)c1ccc(-c2ccccc2)cc1 [4-(1,1-dimethylethyl)-1,1'-biphenyl]
Liquid, Ebulliometric method (Recirculating still)
Details | vapor or sublimation pressure [kPa]
448.41 K | 2.117
467.65 K | 4.346
482.23 K | 7.152
494.83 K | 10.66
502.69 K | 13.5
510.59 K | 16.96
518.4 K | 21.07
528.31 K | 27.41
537.1 K | 34.27
547.22 K | 43.86
557.74 K | 56.03
568.72 K | 71.52
580.98 K | 92.61
593.09 K | 118.1

Details | Normal boiling temperature [°C]
Liquid, Ebulliometric method (Recirculating still) | 312.24

Cc1ccc(-c2ccccc2)cc1 [4-methylbiphenyl]
Details | Normal boiling temperature [°C]
Liquid, Ebulliometric method (Recirculating still) | 274.4
